A word on the EC50: it is the concentration needed to bring the measured effect to its halfway point.

Data on 36 molecules can be found in patent US12358921B2, “Antiviral heterocyclic compounds” (priority 2022, dated 2025).

Structures are written as SMILES.

The test relates to hMPV A2 TN/94-49. Briefly: HMPV antiviral assay Method 2 (LLC-MK2 cells with CP-100-356, ATP-Lite). The class given is cell-based. The conditions noted are these: hMPV A2 TN/94-49, LLC-MK2 cells, 4 μM CP-100-356, Method 2. The method, then: In vitro HMPV antiviral activity was evaluated using the clinical isolate A2 strain TN 94-49 (obtained from Dr. John Williams, Vanderbilt University, Tennessee) and LLC-MK2 cells (Millipore Sigma CB_85062804), an immortalized kidney epithelial cell line from Macaca mulatta. Compounds were resuspended in dimethyl sulfoxide (DMSO) at 10 mM, serially diluted and added to a 384-well source plate. Subsequently, the compounds were diluted and transferred onto 384-well assay plates using the Echo-650 automated liquid handling system (Beckman Coulter, Indiana). The test compounds were assessed in duplicate at a top concentration of 200 nM followed by 2.5-fold serial dilutions to give a total of 10 concentration points. DMSO control wells were also included on the assay plates and were either infected or not, acting as positive and negative controls. A2 TN 94-49 virus infections were performed in-suspension with LLC-MK2 cells. The cells were washed twice with PBS and removed from the cell-culture flask with 0.25% trypsin-EDTA (Thermo Fisher Scientific, MA). The trypsin-EDTA was inactivated by resuspending in 2% fetal bovine serum (FBS) and OptiMEM (ThermoFisher Scientific, MA) containing 1% antibiotic-antimycotic. Cells were pelleted by centrifuging for 5 minutes at 800 rpm, the supernatant was removed, and cells were re-suspended and washed in PBS plus 100 μg/mL CaCl2). This step was performed twice. Cells were then re-suspended in serum-free (SF)-OptiMEM containing 4 μg/mL TPCK-Trypsin (Sigma Aldrich, MO), 1% antibiotic-antimycotic (ThermoFisher Scientific, MA), 100 μg/mL CaCl2), and 4 μM of CP-100-356, a P-glycoprotein inhibitor. Cells were counted and seeded at a density of 5,000 cells/well, 12.5 μL/well. Virus infections were done at a multiplicity of infection (MOI) of 0.16 with 12.5 μL added per well. Virus infections were performed in infection media which contained SF-OptiMEM, 100 μg/mL CaCl2) and 1% antibiotic-antimycotic. HMPV viral stocks are suspended in infection media+5% glycerol, thus an equal volume of infection media+5% glycerol was added to uninfected wells to equalize the final % glycerol across all wells of the assay plate. The final concentration of TPCK-trypsin was 2 μg/mL. The final concentration of CP-100-356 was 2 μM. The assay plates were incubated at 37° C., 5% CO2 for 7 days. After 7 days incubation, 12.5 μL of ATP-Lite (PerkinElmer, MA) was added to each well and the raw luminescence values were determined using the Envision 2104 (Perkin Elmer, MA). The average of the raw luminescence values for the cells and virus only positive control wells was subtracted from all conditions tested and the percent cell health was determined by dividing these values by the average of the cells only negative control wells. EC50 values were then calculated by non-linear regression using a four-parameter curve logistic equation. The curve fit model employed was XLFit Dose Response One Site Model 200: y=(A+(B/(1+((x/C)^D)))), where A is the minimum y value, B is the maximum y value, C is the log EC50value, and D is the slope factor.
Take `COc1c(F)ccc(-c2nc([C@@](O)(CNC(=O)c3cc(OC)c4nn(C5(F)CC5)cc4c3)c3ccccc3)cc3c2OC[C@]3(C)C(N)=O)c1Cl` [Example 375]: the EC50 was less than 200 nM.

As for `C[C@]1(C(N)=O)COc2c1cc([C@@](O)(CNC(=O)c1cc(OC3CC3)n3nc(C4CC4)cc3c1)c1ccccc1)nc2-c1cc(Cl)c(F)cc1F` [Example 191], the EC50 is less than 200 nM.

In turn, `COc1cc(C(=O)NC[C@@](O)(c2ccccc2)c2cc3c(c(-c4cc(C(F)(F)F)ccc4F)n2)OC[C@]3(C)C(N)=O)cc2oc(C3CC3)nc12` [Example 332] registered an EC50 of less than 200 nM.

`COc1cc(C(=O)NC[C@](O)(c2cc3c(c(-c4cc(Cl)c(F)cc4F)n2)OC[C@]3(C)C(N)=O)c2ccn(C)n2)cc2cn(C3CC3)nc12` [Example 480] came in with a concentration for a half-maximal effect (EC50) of less than 200 nM.

For `COc1cc(C(=O)NC[C@@](O)(c2cccc(C(C)O)c2)c2cc3c(c(-c4cccc(Cl)c4Cl)n2)OC[C@]3(C)C(N)=O)cc2cn(C3CC3)nc12` (stereo partly drawn) [Example 495], the 50% effective concentration (EC50) was greater than 200 nM.

Take `COc1cc(OC)c2cc(C(=O)NC[C@@](O)(c3ccccc3)c3cc4c(c(-c5cc(Cl)c(F)cc5F)n3)OC[C@]4(C)C(N)=O)[nH]c2c1` [Example 94]: the EC50 was greater than 200 nM.

`COc1cc([C@](O)(CNC(=O)c2cc(OC)c3nn(C4CC4)cc3c2)c2cc3c(c(-c4cc(Cl)c(F)cc4F)n2)OC[C@]3(C)C(N)=O)cc(F)n1` [Example 503] registered a half-maximal effective concentration (EC50) of less than 200 nM.

As for `COc1cc(C(=O)NC[C@@](O)(c2cnc(C3CC3)nc2)c2cc3c(c(-c4cc(Cl)c(F)cc4F)n2)OC[C@]3(C)C(N)=O)cc2cn(C3CC3)nc12` [Example 478], the EC50 was less than 200 nM.

`C[C@]1(C(N)=O)COc2c1cc([C@@](O)(CNC(=O)c1cc(Cl)c3nc(C4CC4)oc3c1)c1ccccc1)nc2-c1cc(Cl)c(F)cc1F` [Example 232]: the concentration for a half-maximal effect (EC50) was less than 200 nM.

`C[C@]1(C(N)=O)COc2c1cc([C@@](O)(CNC(=O)c1cc(OC3CC3)c3nc(C4CC4)sc3c1)c1ccccc1)nc2-c1cc(Cl)c(F)cc1F` [Example 190] gave a half-maximal effective concentration (EC50) greater than 200 nM.

`COc1cc(C(=O)NC[C@@](O)(c2cncnc2)c2cc3c(c(-c4cc(Cl)c(F)cc4F)n2)OC[C@]3(C)C(N)=O)cc2cn(C3CC3)nc12` [Example 479] displayed a half-maximal effective concentration (EC50) of less than 200 nM.

Take `COc1cc(C(=O)NCC(O)(c2ccccc2)c2cc3c(c(-c4ccc(F)c(Cl)c4)n2)OC[C@]3(C)C(N)=O)cc2cn(C3(F)CC3)nc12` (stereo partly drawn) [Example 362]: the 50% effective concentration (EC50) is less than 200 nM.

`C[C@]1(C(N)=O)COc2c1cc([C@@](O)(CNC(=O)c1ccc3nc(C4CCC4)oc3c1)c1ccccc1)nc2-c1cc(Cl)c(F)cc1F` [Example 221] returned a concentration for a half-maximal effect (EC50) greater than 200 nM.

Consider `Cc1nc2c(OC(F)(F)F)cc(C(=O)NC[C@@](O)(c3ccccc3)c3cc4c(c(-c5cc(Cl)c(F)cc5F)n3)OC[C@]4(C)C(N)=O)cc2s1` [Example 188], for which the concentration giving a half-maximal response (EC50) is greater than 200 nM.

Molecule `C[C@]1(C(N)=O)COc2c1cc([C@@](O)(CNC(=O)c1cc(OC3CC3)c3ncc(Cl)cc3c1)c1ccccc1)nc2-c1cc(C(F)(F)F)c(F)cc1F` [Example 315] had a 50% effective concentration (EC50) of less than 200 nM.

Consider `C[C@]1(C(N)=O)COc2c1cc([C@@](O)(CNC(=O)c1ccc3nc(C4CC4)oc3c1)c1ccccc1)nc2-c1ccc2c(c1)OC(F)(F)O2` [Example 199], for which the half-maximal effective concentration (EC50) was greater than 200 nM.

Turning to `COc1cc(F)c(F)cc1-c1nc([C@@](O)(CNC(=O)c2cc(OC)c3nn(C4(F)CC4)cc3c2)c2ccccc2)cc2c1OC[C@]2(C)C(N)=O` [Example 365], the EC50 was less than 200 nM.

Consider `COc1cc([C@](O)(CNC(=O)c2cc(OC)c3nn(C4CC4)cc3c2)c2cc3c(c(-c4cccc(Cl)c4Cl)n2)OC[C@]3(C)C(N)=O)ccn1` [Example 494], for which the EC50 is less than 200 nM.

Molecule `C[C@]1(C(N)=O)COc2c1cc([C@@](O)(CNC(=O)c1cc(C(F)(F)F)c3nn(C4CC4)cc3c1)c1ccccc1)nc2-c1cc(Cl)c(F)cc1F` [Example 228] gave an EC50 of less than 200 nM.

As for `Cc1nc2c(OC3CC3)cc(C(=O)NC[C@@](O)(c3ccccc3)c3cc4c(c(-c5cc(Cl)c(F)cc5F)n3)OC[C@]4(C)C(N)=O)cc2o1` [Example 234], the EC50 was less than 200 nM.

Regarding `Cc1nc2c(OC3CC3)cc(C(=O)NC[C@@](O)(c3ccccc3)c3cc4c(c(-c5cc(Cl)c(F)cc5F)n3)OC[C@]4(C)C(N)=O)cc2s1` [Example 189], the EC50 was less than 200 nM.

Molecule `C[C@]1(C(N)=O)COc2c1cc([C@@](O)(CNC(=O)c1cc(Cl)c3nn(C(F)F)cc3c1)c1ccccc1)nc2-c1cc(Cl)c(F)cc1F` [Example 102] returned a half-maximal effective concentration (EC50) greater than 200 nM.

`C[C@]1(C(N)=O)COc2c1cc([C@@](O)(CNC(=O)c1ccc3nc(-c4ccccc4)oc3c1)c1ccccc1)nc2-c1cc(Cl)c(F)cc1F` [Example 227] showed an EC50 greater than 200 nM.

With `COc1cc(C(=O)NC[C@@](O)(c2ccccc2)c2cc3c(c(-c4cccc(F)c4F)n2)OC[C@]3(C)C(N)=O)cc2cn(C3(F)CC3)nc12` [Example 367], the concentration giving a half-maximal response (EC50) was less than 200 nM.

In turn, `COc1cc(C(=O)NCC(O)(c2ccc(F)cn2)c2cc3c(c(-c4cc(Cl)c(F)cc4F)n2)OC[C@]3(C)C(N)=O)cc2cn(C3CC3)nc12` (stereo partly drawn) [Example 210] displayed a half-maximal effective concentration (EC50) of less than 200 nM.

The molecule `C[C@]1(C(N)=O)COc2c1cc([C@@](O)(CNC(=O)c1cc(OC3CC3)n3nc(C4CC4)cc3c1)c1cccc(F)c1)nc2-c1cccc(Cl)c1Cl` [Example 335] displayed a concentration for a half-maximal effect (EC50) of less than 200 nM.

Molecule `COc1cc(C(=O)NC[C@@](O)(c2cnoc2)c2cc3c(c(-c4cc(Cl)c(F)cc4F)n2)OC[C@]3(C)C(N)=O)cc2cn(C3CC3)nc12` [Example 491] gave an EC50 of less than 200 nM.

On to `COc1cc(C(=O)NC[C@@](O)(c2ccccc2)c2cc3c(c(-c4cc(Cl)c(F)cc4F)n2)OC[C@]3(C)C(N)=O)cc2c1OCCC2` [Example 93], for which the EC50 was greater than 200 nM.

Take `C[C@]1(C(N)=O)COc2c1cc([C@@](O)(CNC(=O)c1ccc3nc(C(F)F)oc3c1)c1ccccc1)nc2-c1cc(Cl)c(F)cc1F` [Example 222]: the EC50 was greater than 200 nM.

Molecule `Cc1cc(C(=O)NC[C@@](O)(c2ccccc2)c2cc3c(c(-c4cc(Cl)c(F)cc4F)n2)OC[C@]3(C)C(N)=O)cc2cn[nH]c12` [Example 118] showed an EC50 of less than 200 nM.

In turn, `COc1cc(C(=O)NC[C@@](O)(c2ccccc2)c2cc3c(c(-c4cc(Cl)ccc4F)n2)OC[C@]3(C)C(N)=O)cc2oc(C3CC3)nc12` [Example 331] had an EC50 of less than 200 nM.

Take `COc1cc(C(=O)NCC(O)(c2cccc(F)c2)c2cc3c(c(-c4cccc(Cl)c4C#N)n2)OC[C@]3(C)C(N)=O)cc2cn(C3(F)CC3)nc12` (stereo partly drawn) [Example 399]: the EC50 is greater than 200 nM.

For the molecule `COc1cc(C(=O)NCC(O)(c2ccccc2)c2cc3c(c(-c4ccc(F)cc4)n2)OC[C@]3(C)C(N)=O)cc2cn(C3(F)CC3)nc12` (stereo partly drawn) [Example 361], the EC50 was greater than 200 nM.

Molecule `C[C@]1(C(N)=O)COc2c1cc([C@@](O)(CNC(=O)c1cc(OC(F)F)c3ncc(Cl)cc3c1)c1ccccc1)nc2-c1cc(Cl)c(F)cc1F` [Example 231] showed a concentration for a half-maximal effect (EC50) of less than 200 nM.

On to `CC(C)c1nc2ccc(C(=O)NC[C@@](O)(c3ccccc3)c3cc4c(c(-c5cc(Cl)c(F)cc5F)n3)OC[C@]4(C)C(N)=O)cc2o1` [Example 224], for which the concentration for a half-maximal effect (EC50) was greater than 200 nM.

Take `C[C@]1(C(N)=O)COc2c1cc([C@@](O)(CNC(=O)c1ccc3nc(Cc4ccccc4)oc3c1)c1ccccc1)nc2-c1cc(Cl)c(F)cc1F` [Example 230]: the EC50 was greater than 200 nM.
